Measured values taken from article PMC10454409, “Hybrids of Sterically Hindered Phenols and Diaryl Ureas: Synthesis, Switch from Antioxidant Activity to ROS Generation and Induction of Apoptosis” (International Journal of Molecular Sciences, 2023).
pIC50: −log10 of the molar value.

Legend:
[1] = Cyclic voltammetry; assay type: physicochemical; conditions: in CH3CN vs. Ag/AgCl; GC electrode; 0.1 V/s
From the text: Electrochemical measurements were taken on a BASi Epsilon EClipse electrochemical analyzer (West Lafayette, IN, USA). The program concentrated cEpsilon-ECUSB-V200 waves at the potential scan rate t = […] in a CH3CN 0.1 M solution of Bu4NBF4 at 295 K. A glassy carbon working electrode (ð = 3 mm) embedded in Teflon and a Pt wire as the counter electrode were used in the electrochemical cell. Before each measurement, the surface of the working electrode was mechanically polished. Ag/AgCl (0.01 M KCl) was used as a reference electrode. The reference electrode was connected with the cell solution by a modified Luggin capillary filled with the supporting electrolyte solution (0.1 M Bu4NBF4 in CH3CN). Thus, the reference electrode assembly had two compartments, each terminated with an ultra-fine glass frit to separate the AgCl from the analyte. The scan rate was 100 mV∙s^−1. The measurements were performed in a temperature-controlled electrochemical cell (volume from 5 mL to 20 mL) in an inert gas atmosphere (N2).
Figure 10 Cyclic voltammogram for the oxidation of SHPs. Conditions: 0.1 mM CH3CN (0.1 M Bu4NBF4); potentials vs. Ag/AgCl; work electrode: GC; scan rate: 0.1 V/s.

[2] = tested on: SH-SY5Y cells (neuroblastoma); experiment: MTT cytotoxicity test, SH-SY5Y; assay type: cell-based; conditions: Homo sapiens, SH-SY5Y; MTT test; 24 h incubation per text, 48 h per method
From the text: (§1) For the experiments, we used tumor cell cultures M-HeLa clone 11 (epithelioid carcinoma of the cervix, subline HeLa., clone M-HeLa), HuTu 80 (human duodenal adenocarcinoma) and MCF7 (human breast adenocarcinoma (pleural fluid)) from the collection of the Institute of Cytology, Russian Academy of Sciences (St. Petersburg); human liver cells (Chang liver) from the collection of the Research Institute of Virology at the Russian Academy of Medical Sciences (Moscow); and SH-SY5Y (neuroblastoma)from the Laboratory of Tumor Cell Genetics at the Scientific Research Institute of Carcinogenesis N.N. Blokhin National Medical Research Center of Oncology.
(§2) The cytotoxic effect on cells was determined using the colorimetric method of cell proliferation—the MTT test. NADP-H-dependent cellular oxidoreductase enzymes can, under certain conditions, reflect the number of viable cells. These enzymes are able to reduce the tetrazolium dye (MTT)-3-(4,5-dimethylthiazol-2-yl)-2,5-diphenyl-tetrazolium bromide to insoluble blue-violet formazan, which crystallizes inside the cell. The amount of formazan formed is proportional to the number of cells with active metabolism.
(§3) Cells were seeded on a 96-well Nunc plate at a concentration of 5 × 10^3 cells per well in a volume of 100 μL of medium and cultured in a CO2 incubator at 37 °C until a monolayer was formed. […] After 48 h, the nutrient medium was removed from the plates and 100 µL of the nutrient medium without serum with MTT at a concentration of 0.5 mg/mL was added and incubated for 4 h at 37 °C. Formazan crystals were […] 100 µL of DMSO in each well. Optical density was recorded at 540 nm on an in vitro logic microplate reader (Russia). The experiments for all compounds were repeated in triplicate.
(§4) IC50 values were estimated using the Quest Graph IC50 Calculator (AAT Bioquest, Inc., Sunnyvale, CA, USA) (Version 2022) (accessed on 25 June 2022).

[3] = tested on: M-HeLa cells (human cervix epithelioid carcinoma); experiment: MTT cytotoxicity test, M-HeLa; assay type: cell-based; conditions: Homo sapiens, M-HeLa; MTT test; 24 h incubation per text, 48 h per method
From the text: as §1, §2, §3, §4

[4] = tested on: HuTu 80 cells (human duodenal adenocarcinoma); experiment: MTT cytotoxicity test, HuTu 80; assay type: cell-based; conditions: Homo sapiens, HuTu80, read-out: IC50, HuTu 80
From the text: as §1, §2, §3, §4

[5] = tested on: MCF-7 cells (human breast adenocarcinoma); experiment: MTT cytotoxicity test, MCF-7; assay type: cell-based; conditions: Homo sapiens, MCF7, MTT test; 24 h incubation per text, 48 h per method
Experimental: as §2
Formazan crystals were added to 100 µL of DMSO in each well. Optical density was recorded at 540 nm on an in vitro logic microplate reader (Russia). The experiments for all compounds were repeated in triplicate.

`Cc1cc(C(C)(C)C)c(O)c(C(C)(C)C)c1` [ionol] gave an Oxidation potential [1] of ~1.45 V.

With `COP(=O)(OC)C(c1cc(C(C)(C)C)c(O)c(C(C)(C)C)c1)c1ccc(NC(=S)Nc2ccccc2)cc1NC(=S)Nc1ccccc1` (stereo not shown) [19a] the pIC50 [2] was < 4.15, the pIC50 [3] was < 4.15 and the pIC50 [4] was < 4.15. The melting point was 207 to 208 °C and the pIC50 [5] was < 4.15.

For `O=C(Nc1ccccc1)Nc1ccccc1` [diphenyl urea], the Oxidation potential [1] was 1.60 V.
